Laboratory results from patent publication US5164388A, “Heterocyclic peptide renin inhibitors” (Abbott Laboratories, priority 1991, dated 1992).

Molecular target: T1, human renal renin (Homo sapiens, UniProt P00797)
T1 construct: human renal renin, free from acid proteolytic activity; from tissue
T1 sequence (P00797 67-406): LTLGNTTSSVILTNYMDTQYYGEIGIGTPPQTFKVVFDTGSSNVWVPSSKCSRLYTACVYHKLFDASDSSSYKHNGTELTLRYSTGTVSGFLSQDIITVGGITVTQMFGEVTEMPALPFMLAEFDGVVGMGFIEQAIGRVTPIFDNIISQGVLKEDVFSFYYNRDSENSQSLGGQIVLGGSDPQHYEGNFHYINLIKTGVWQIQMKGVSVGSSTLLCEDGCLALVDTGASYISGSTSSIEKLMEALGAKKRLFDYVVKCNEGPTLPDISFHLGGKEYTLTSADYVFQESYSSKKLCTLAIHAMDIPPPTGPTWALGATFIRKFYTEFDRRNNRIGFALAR
Test: Inhibition of human renal renin in vitro (angiotensin I formed, radioimmunoassay)
Type: biochemical
Settings: human angiotensinogen substrate, 37 degrees C., pH 6.0
Description: The novel compounds of the present invention are also useful for treating congestive heart failure. […] At the end of the incubation, the amount of angiotensin I formed is measured by radioimmunoassay and the molar concentration required to cause 50% inhibition, expressed as the IC50, is calculated.

SMILES | IC50
Cc1ccc(S(=O)(=O)N2CCN(C(Cc3cscn3)C(=O)N[C@@H](CC3CCCCC3)[C@@H](O)[C@@H]3C[C@H](C)CO3)C(=O)[C@H]2Cc2ccccc2)cc1 (stereo partly drawn) [Example 140, 3-(S-Thiazolyl)-2-(3R-benzyl-4-N-p-toluene-sulfonyl-2-keto-piperazin-1-yl)-propionic acid Amide of 2(S)-(2(S)-Amino-3-cyclohexyl-1(R)-hydroxy)propyl-4(S)-methyltetrahydrofuran] | 0.0034 µM
CC(C)C[C@H](O)[C@H](O)[C@H](CC1CCCCC1)NC(=O)C(Cc1cnc[nH]1)N1CCC[C@](Cc2ccccc2)(NC(=O)OCc2ccccc2)C1=O (single isomer, unassigned) [Example 88, (2R or 2S)-((3R)-((Benzyloxycarbonyl)amino)-3-phenylmethyl-2-oxo-1-piperidinyl)-3-(4-imidazolyl)propionic acid amide of (2S,3R,4S)-2-amino-1-cyclohexyl-3,4-dihydroxy-6-methylheptane] | 0.028 µM
CC(C)C[C@H](O)[C@H](O)[C@H](CC1CCCCC1)NC(=O)[C@H](Cc1c[nH]cn1)N1CCN(C(=O)N2CCOCC2)[C@H](Cc2ccccc2)C1=O [Example 51, 3-(4-Imidazolyl)-2(S)-(3R-benzyl-4-N-morpholin-1-yl-carbonyl-2-keto-piperazin-1-yl) -propionic Acid Amide of 2(S)-Amino-1-cyclohexyl-3(R),4(S)-dihydroxy-6-methylheptane] | 0.23 µM
CC(C)C[C@H](O)[C@H](O)[C@H](CC1CCCCC1)NC(=O)C(Cc1cnc[nH]1)N1CCC(Cc2ccccc2)(NC(=O)OCc2ccccc2)C1=O (single isomer, unassigned) [Example 63B] | 0.015 µM
Cc1ccc(S(=O)(=O)N2CCN(C(Cc3cscn3)C(=O)N[C@@H](CC3CCCCC3)[C@@H](O)[C@@H](O)CC(C)C)C(=O)[C@H]2Cc2ccccc2)cc1 (stereo partly drawn) [Example 131, 3-(3-Thiazolyl)-2-(3R-benzyl-4-N-p-toluene-sulfonyl-2-keto-piperazin-1-yl)-propionic acid Amide of 2(S)-amino-1-cyclohexyl-3(R),4(S)-dihydroxyl-6-methylheptane] | 0.003 µM
CCCC[C@@H](C(=O)N[C@@H](CC1CCCCC1)[C@@H](O)[C@@H](O)CC(C)C)N1CCN(C(=O)N2CCN(C)CC2)[C@H](Cc2ccccc2)C1=O [Example 47, 2(S)-(3R-Benzyl-4-N-(4-(N'-methyl)-piperazin-1-yl-carbonyl)-2-keto-piperazin-1-yl)-hexanoic acid Amide of 2(S)-Amino-1-cyclohexyl-3(R),4(S)-dihydroxy-6-methylheptane] | 0.081 µM
CCCC[C@@H](C(=O)N[C@@H](CC1CCCCC1)[C@@H](O)[C@@H](O)CC(C)C)N1CCCN(C(=O)OC(C)(C)C)[C@H](Cc2ccccc2)C1=O [Example 132, 2(S)-(3R-Benzyl-4N-tert-butyloxycarbonyl-2-keto-homopiperazin-1-yl)-hexanoic acid Amide of 2(S)-Amino-1-cyclohexyl-3(R),4(S)-dihydroxy-6-methylheptane] | 0.34 µM
CCCCC(C(=O)N[C@@H](CC1CCCCC1)[C@@H](O)[C@@H](O)CC(C)C)N1CCN(Cc2ccccc2)CC1 (stereo partly drawn) [Example 32A, 2-(4-Benzyl-piperazin-1-yl)-hexanoic acid Amide of 2(S)-Amino-1-cyclohexyl-3(R),4(S)-dihydroxy-6-methylheptane] | 0.81 µM
CCN1C[C@@H]([C@H](O)[C@H](CC2CCCCC2)NC(=O)[C@H](Cc2cnc[nH]2)N2C[C@H](Cc3ccccc3)N(CC(C)C)C2=O)OC1=O [Example 119, (2S)-2-(Imidazol-4-ylmethyl)-2-(3-isobutyl-(4S)-phenylmethylimidazolidin-2-one-1-yl)acetic Acid Amide of (2'S,1'R,5S)-3-Ethyl-5-(1'-hydroxy-2'-amino-3'-cyclohexylpropyl)oxazolidin-2-one] | 0.15 µM
CCCCC(C(=O)N[C@@H](CC1CCCCC1)[C@@H](O)[C@@H](O)CC(C)C)N1CCN(C(=O)N2CCOCC2)[C@H](Cc2ccccc2)C1 (stereo partly drawn) [Example 38A, 2-(3R-Benzyl-4-N-(morpholin-1-yl-carbonyl)-piperazin)-1-yl-hexanoic acid Amide of 2(S)-Amino-1-cyclohexyl-3(R),4(S)-dihydroxy-6-methylheptane] | 0.0062 µM
CCCCNC(=O)[C@H](C[C@H](O)[C@H](CC1CCCCC1)NC(=O)C(Cc1cscn1)N1CCN(S(=O)(=O)c2ccc(C)cc2)[C@H](Cc2ccccc2)C1=O)C(C)C (stereo partly drawn) [Example 130, 3-(4-Thiazolyl)-2-(3R-benzyl-4-N-p-toluene-sulfonyl-2-keto-piperazin-1-yl)-propionic acid Amide of Butyl 5(S)-amino-6-cyclohexyl-4(S)-hydroxy-2(R)-isopropylhexan-amide] | 0.00073 µM
CCCCNC(=O)[C@H](C[C@H](O)[C@H](CC1CCCCC1)NC(=O)C(Cc1cscn1)N1CCN(S(=O)(=O)N2CCN(C)CC2)[C@H](Cc2ccccc2)C1=O)C(C)C (stereo partly shown) [Example 141] | 0.0015 µM
CCCCC(C(=O)N[C@@H](CC1CCCCC1)[C@@H](O)[C@@H](O)CC(C)C)N1CCC(Cc2ccccc2)CC1 (stereo partly drawn) [Example 13, 2-(4-Benzylpiperidin-1-yl)-hexanoic acid Amide of 2(S)-Amino-1-cyclohexyl-3(R),4(S)-dihydroxy-6-methylheptane] | 0.43 µM
CC(C)C[C@H](O)[C@H](O)[C@H](CC1CCCCC1)NC(=O)C(Cc1ncc[nH]1)N1CCN(S(=O)(=O)N2CCN(C)CC2)[C@H](Cc2ccccc2)C1=O (stereo partly shown) [Example 145] | 0.0017 µM
CC(C)C[C@H](O)[C@H](O)[C@H](CC1CCCCC1)NC(=O)C(Cc1cscn1)N1CCN(C(=O)N2CCOCC2)[C@H](Cc2ccccc2)C1=O (stereo partly drawn) [Example 49B, 3-(4-Thiazolyl)-2-(3R-benzyl-4-N-morpholin-1-yl-carbonyl-2-keto-piperazin-1-yl)-propionic acid Amide of 2(S)-Amino-1-cyclohexyl-3(R),4(S)-dihydroxy-6-methylheptane] | 0.032 µM
CC(C)C[C@H](O)[C@H](O)[C@H](CC1CCCCC1)NC(=O)[C@H](Cc1c[nH]cn1)N1C[C@H](Cc2ccccc2)CC1=O [Example 122, (2S)-2-(Imidazol-4-ylmethyl)-2-((4R)-phenylmethyl-2-oxopyrrolidin-1-yl)acetic Acid Amide of (2S)-Amino-1-cyclohexyl-3(R),4(S)-dihydroxy-6-methylheptane] | 0.58 µM
CCCCC(C(=O)N[C@@H](CC1CCCCC1)[C@@H](O)[C@@H](O)CC(C)C)N1CCN(c2ncccn2)CC1 (stereo partly drawn) [Example 12A, 2-(4-(2-Pyrimidyl)-piperazin-1-yl)-hexanoic acid Amide of 2(S)-Amino-1-cyclohexyl-3(R),4(S)-dihydroxy-6-methylheptane] | 0.77 µM
CCCC[C@@H](C(=O)N[C@@H](CC1CCCCC1)[C@@H](O)[C@@H](O)CC(C)C)N1CC(=O)N[C@H](Cc2ccccc2)C1 [Example 24] | 0.17 µM
CC(C)C[C@H](O)[C@H](O)[C@H](CC1CCCCC1)NC(=O)[C@H](Cc1c[nH]cn1)N1CC[C@@H](Cc2ccccc2)C1=O [Example 121, (2S)-2-(Imidazol-4-ylmethyl)-2-((3R)-phenylmethyl-2-oxopyrrolidin-1-yl)acetic Acid Amide of (2S)-Amino-1-cyclohexyl-3(R),4(S)-dihydroxy-6-methylheptane] | 0.43 µM
CC(C)C[C@H](O)[C@H](O)[C@H](CC1CCCCC1)NC(=O)C(Cc1cnc[nH]1)N1CCC(Cc2ccccc2)(NC(=O)OCc2ccccc2)C1=O (single isomer, unassigned) [Example 63C] | 0.0045 µM
CCCC[C@H](NC[C@@H](Cc1ccccc1)NC(=O)OCc1ccccc1)C(=O)OC [Example 21] | 0.062 µM
CCN1C[C@@H]([C@H](O)[C@H](CC2CCCCC2)NC(=O)C(Cc2ncc[nH]2)N2CCN(S(=O)(=O)N3CCN(C)CC3)[C@H](Cc3ccccc3)C2=O)OC1=O (stereo partly drawn) [Example 143, 3-(2-imidazolyl)-2-(3R-benzyl-4-N-(N-methylpiperazyl)-sulfonyl-2-keto-piperazin-1-yl)-propionic acid Amide of (2'S,1'R,5S)-3-Ethyl-5-(1'-hydroxy-2'-amino-3'-cyclohexylpropyl)oxazolidin-2-one] | 0.0017 µM
CCCC[C@@H](C(=O)N[C@@H](CC1CCCCC1)[C@@H](O)[C@@H](O)CC(C)C)N1CCN(C(=O)N2CCOCC2)[C@H](Cc2ccccc2)C1=O [Example 50, 2(S)-(3R-Benzyl-4-N-morpholin-1-yl-carbonyl-2-keto-piperazin-1-yl)-hexanoicacid Amide of 2(S)-Amino-1-cyclohexyl-3(R),4(S)-dihydroxy-6-methylheptane] | 0.022 µM
CC(C)C[C@H](O)[C@H](O)[C@H](CC1CCCCC1)NC(=O)[C@H](Cc1cscn1)N1CCC[C@@](Cc2ccccc2)(NS(=O)(=O)N2CCN(C)CC2)C1=O [Example 151, (2S)-(3S)-((N-methylpiperazinsulfonyl)-amino-3-phenylmethyl-2-oxo-1-piperidinyl)-3-(4-thiazolyl) propionic acid amide of (2S.3R,4S)-2-amino-1-cyclohexyl-3,4-dihydroxy-6-methylheptane] | 0.00032 µM
CC(C)C[C@H](O)[C@H](O)[C@H](CC1CCCCC1)NC(=O)C(Cc1cnc[nH]1)N1CCC[C@@](Cc2ccccc2)(NC(=O)OCc2ccccc2)C1=O (single isomer, unassigned) [Example 87, (2R or 2S)-((3S)-(Benzyloxycarbonyl)amino)-3-phenylmethyl-2-oxo-1-piperidinyl)-3-(4-imidazolyl)propionic acid amide of (2S,3R,4S)-2-amino-1-cyclohexyl-3,4-dihydroxy-6-methylheptane] | 0.0014 µM
